US10512631B2, “Chalcone compounds” (Beth Israel Deaconess Medical Center, Inc., priority 2015, dated 2019)

Tests used:
Type in all cases: cell-based
A549 [1] = test: Cytoxicity / crystal violet staining, A549; details: average of triplicates, % of apoptotic cells vs DMSO controls, N.A. = not active at 10 μM
Experimental: (§1) PC3 (provided by Dr. Steven Balk's laboratory in Department of Medicine at Beth Israel Deaconess Medical Center), PANC02 and CRL2119 (provided by Dr. Pankaja Seth's laboratory in Department of Medicine at Beth Israel Deaconess Medical Center), A549 (ATCC) cell lines were cultured according to manufacturer's protocols. Briefly, PC3 were cultured in RPMI medium supplemented with 10% FBS (Atlanta). PANC-2, A549 and CRL2119 were cultured in DMEM High medium supplemented with 10% FBS (Atlanta). Human bronchial epithelial cells (BEC) were cultured in Airway Epithelial Cell Basal Medium with the Bronchial Epithelial cell growth kit (ATCC) according to manufacturer's protocol and used at passages 3-5.
(§2) Cells were seeded at 5×10^3 concentration in 96 well plates and treated with test compounds or DMSO (0.001-10 μM) for 72 hours. Culture medium was removed and cells were stained with crystal violet solution (Sigma-Aldrich) for 15 minutes while shaking at room temperature. Crystal violet was then removed and cells were repeatedly washed in water. Attached cells stained with crystal violet were dried and then resuspended in 10% acetic acid. Absorbance was measured at 562 nm. The intensity of staining corresponded directly to the number of live cells.

PC3 [2] = test: Cytoxicity / crystal violet staining, PC3; details: average of triplicates, % of apoptotic cells vs DMSO controls, N.A. = not active at 10 μM
Experimental: as §1, §2

A549 cells = test: Invasion chambers (Transwell, Matrigel); details: serum chemoattractants, compared to untreated cells
Experimental: The invasion of A549 cells was measured using Transwell chambers (Chemicon, Millipore, Calif.) according to the manufacturer's protocol. Briefly, A549 cells were treated with test compounds at 1 μM in 500 μl of DMEM medium without FBS for 24 hours. Medium in the upper chamber was serum-free while medium in the lower chamber contained 10% FBS as a source of chemoattractants. Cells that passed through the Matrigel-coated membrane were stained and photographed after 24 hours of incubation. Absorbance was measured at 562 nm by ELISA reader after dissolving of stained cells in 10% acetic acid.

A549 [3] = test: Cytoxicity / crystal violet staining, A549; details: Homo sapiens, 0.01-5 μM for 72 hours, n=4
PC3 [4] = test: Cytoxicity / crystal violet staining, PC3; details: Homo sapiens, PC-3; 0.01-5 μM for 72 hours, n=4
PC3 cells = test: Immunostaining of α-tubulin and β-actin in PC3 cells; details: Compound 6 1 μM or docetaxel 20 nM, 24 hours
Experimental: Immunofluorescence and immunostaining on cell lines and tumor samples were performed as described in Wegiel et al, Cancer research 2013, 73(23), 7009-21. Anti-mouse STMN1, anti-P (Ser10)-Histone H3, and α-tubulin antibody were obtained from Cell Signaling. β-actin antibody was obtained from Sigma-Aldrich. […] After immunofluorescence staining, the number of P-Histone H3 was quantified per field of view at 40× magnification using Zeiss Axiovert Microscope.

| Compound | Cytoxicity (% cell killing at 10 μM) A549 (A549 [1]) | Cytoxicity (% cell killing at 10 μM) PC3 (PC3 [2]) | invasion / migration through matrigel coated chambers (A549 cells) | IC50 (A549 [3]) | IC50 (PC3 [4]) | microtubule stability (α-tubulin immunostaining) (PC3 cells) |
| --- | --- | --- | --- | --- | --- | --- |
| Cn1ccc2cc(/C=C3\CCc4ccc(Br)cc4C3=O)ccc21 [Compound 20] | 21% | 47% |  |  |  |  |
| Cn1ccc2cc(/C=C3\CCc4ccccc4C3=O)ccc21 [Compound 2] | 56% | 52% |  |  |  |  |
| O=C1/C(=C/c2ccc3[nH]ccc3c2)CCc2ccc(F)cc21 [Compound 7, (2E)-7-fluoro-2-(1H-indol-5-ylmethylidene)-1,2,3,4-tetrahydronaphthalen-1-one] | 43% | 45% | accelerated migration | 271 nM | 449 nM |  |
| CCn1ccc2cc(/C=C3\CCc4ccc(F)cc4C3=O)ccc21 [Compound 8, (2E)-2-[(1-ethyl-1H-indol-5-yl)methylidene]-7-fluoro-1,2,3,4-tetrahydronaphthalen-1-one] | 38% | 33% | strongly inhibited invasion | 113 nM | 106 nM |  |
| O=C1/C(=C/c2ccc3[nH]ccc3c2)CCc2ccccc21 [Compound 1] | 47% | 55% |  |  |  |  |
| COc1ccc2c(c1)C(=O)/C(=C/c1ccc3ccn(C)c3c1)CC2 [Compound 15] | 24% | 42% |  |  |  |  |
| Cn1ccc2ccc(/C=C3\CCc4ccc(Br)cc4C3=O)cc21 [Compound 21] | 26% | 39% |  |  |  |  |
| COc1ccc2c(c1)C(=O)/C(=C/c1ccc3c(ccn3C)c1)CC2 [Compound 14] | 21% | 18% |  |  |  |  |
| Cn1ccc2ccc(/C=C3\CCc4ccccc4C3=O)cc21 [Compound 4] | 53% | 61% |  |  |  |  |
| O=C1/C(=C/c2ccc3[nH]ccc3c2)CCc2ccc(Br)cc21 [Compound 19] | 16% | 42% |  |  |  |  |
| CCn1ccc2cc(/C=C3\CCc4ccc(OC)cc4C3=O)ccc21 [Compound 12] | 20% | 49% |  |  |  |  |
| CC(=O)n1ccc2cc(/C=C3\CCc4ccc(F)cc4C3=O)ccc21 [Compound 9] | 28% | 24% |  |  |  |  |
| CCn1ccc2cc(/C=C3\CCc4ccccc4C3=O)ccc21 [Compound 3] | 52% | 58% |  |  |  |  |
| CC(=O)O[C@@]12CO[C@@H]1C[C@H](O)[C@@]1(C)C(=O)[C@H](O)C3=C(C)[C@@H](OC(=O)[C@H](O)[C@@H](NC(=O)OC(C)(C)C)c4ccccc4)C[C@@](O)([C@@H](OC(=O)c4ccccc4)[C@H]21)C3(C)C [docetaxel, reference compound] |  |  |  |  |  | stabilization of microtubules |
| COc1ccc2c(c1)C(=O)/C(=C/c1ccc3[nH]ccc3c1)CC2 [Compound 13] | 5% | 55% |  |  |  |  |
| COc1cc2c(cc1OC)C(=O)/C(=C/c1ccc3c(ccn3C)c1)CC2 [Compound 16] |  | 31% |  |  |  |  |
| CCn1ccc2cc(/C=C3\CCc4cc(OC)c(OC)cc4C3=O)ccc21 [Compound 17] | 19% | 45% |  |  |  |  |
| COc1cc2c(cc1OC)C(=O)/C(=C/c1ccc3ccn(C)c3c1)CC2 [Compound 18] | 41% | 55% |  |  |  |  |
